Source: US20170088520A1, “DEUBIQUITINASE INHIBITORS” (PharmAkea, Inc., priority 2014, published 2017)

Assays:
Type in all cases: cell-based
[1] = system: Mcl-1 expression in cells (NCI-H929, Z138, MM.1S, A-375); experiment: Analysis of Mcl-1 expression by Western blotting; details: compound tested at 5 μM; Western blot
Experimental: (§1) Example B-2: Analysis of Md-1 Expression and PARP Cleavage
(§2) The ability of test compounds to decrease expression of the tumor promoting protein, Mcl-1, and to induce the inactivation/cleavage of the PARP protein is evaluated in cells (NCI-H929, Z138, MM.1S, A-375) by Western blotting. Cells are plated and treated as described in the HA-Ub-VS cell labeling assay (see above). A portion of the cleared lysate (15-50 μl) is run on an SDS-polyacrylamide gel to separate proteins and then transferred to nitrocellulose. After transfer to nitrocellulose, the proteins are detected by probing the blot with anti-Mcl-1 and anti-PARP antibodies followed by secondary antibodies coupled to IRdye 800 and IRdye 680 and visualization and quantitation using a LiCor Odyssey machine. Activity of the test compound is identified as a significant decrease in Mcl-1 expression relative to the vehicle treated cells and to the appearance of a cleaved fragment of PARP relative to the vehicle-treated cells.
(§3) The following compounds were tested in the above assays at 5 μM: […]

[2] = system: PARP cleavage in cells (NCI-H929, Z138, MM.1S, A-375); experiment: Analysis of PARP cleavage by Western blotting; details: compound tested at 5 μM; Western blot
Experimental: as §1, §2, §3

[3] = target: T1, DUB activity in cells (NCI-H929, Z138, MM.1S, A375) (Homo sapiens, UniProt Q93008); experiment: HA-Ubiquitin-Vinylsulfone (HA-Ub-VS) cell labeling assay; details: compound tested at 5 μM; HA-Ub-VS labeling of USP9x in cells
T1 construct: endogenous in cells; host or cells: NCI-H929, Z138, MM.1S, A375
Experimental: Example B-1: HA-Ubiqutin-Vinylsulfone (HA-Ub-VS) Cell Labeling
Inhibitition of DUB activity is measured in cells (NCI-H929, Z138, MM.1S, A375) using a hemaglutinin-ubiquitin-vinylsulfone (HA-Ub-VS) labeling assay. Briefly, 1-2×10^6 cells are plated in 12-well plates in 1 ml complete growth media and 250 μl of test compound in 0.5% dimethylsulfoxide (or DMSO control) is added to each well. Plates are incubated at 37° C., 5% CO2 for 2-6 hours before cells are harvested into eppendorf tubes, washed once in PBS and resuspended in 100 μl cold lysis buffer (50 mM Tris pH 8, 150 mM NaCl, 0.5% NP-40, 2 mM phenylmethylsulfonyl fluoride and complete protease inhibitor tablet). Resupended cells are frozen on dry ice, then thawed and incubated on ice for 15 minutes. Tubes are centrifuged for 10 minutes at 14,000 rpm at 4° C. and the cleared supernatants transferred to clean tubes. […] The samples are incubated 15-60 min at 37° C. before the addition of SDS gel loading buffer. Proteins are separated by SDS-PAGE, transferred to nitrocellulose and the blot probed with anti-HA antibody and anti-β-actin antibodies. The HA and β-actin antibodies are detected using secondary antibodies coupled to IRdye 800 or IRdye 680 and visualized and quantitated using the LiCor Odyssey machine.
as §3

T1 sequence (Q93008 whole entry): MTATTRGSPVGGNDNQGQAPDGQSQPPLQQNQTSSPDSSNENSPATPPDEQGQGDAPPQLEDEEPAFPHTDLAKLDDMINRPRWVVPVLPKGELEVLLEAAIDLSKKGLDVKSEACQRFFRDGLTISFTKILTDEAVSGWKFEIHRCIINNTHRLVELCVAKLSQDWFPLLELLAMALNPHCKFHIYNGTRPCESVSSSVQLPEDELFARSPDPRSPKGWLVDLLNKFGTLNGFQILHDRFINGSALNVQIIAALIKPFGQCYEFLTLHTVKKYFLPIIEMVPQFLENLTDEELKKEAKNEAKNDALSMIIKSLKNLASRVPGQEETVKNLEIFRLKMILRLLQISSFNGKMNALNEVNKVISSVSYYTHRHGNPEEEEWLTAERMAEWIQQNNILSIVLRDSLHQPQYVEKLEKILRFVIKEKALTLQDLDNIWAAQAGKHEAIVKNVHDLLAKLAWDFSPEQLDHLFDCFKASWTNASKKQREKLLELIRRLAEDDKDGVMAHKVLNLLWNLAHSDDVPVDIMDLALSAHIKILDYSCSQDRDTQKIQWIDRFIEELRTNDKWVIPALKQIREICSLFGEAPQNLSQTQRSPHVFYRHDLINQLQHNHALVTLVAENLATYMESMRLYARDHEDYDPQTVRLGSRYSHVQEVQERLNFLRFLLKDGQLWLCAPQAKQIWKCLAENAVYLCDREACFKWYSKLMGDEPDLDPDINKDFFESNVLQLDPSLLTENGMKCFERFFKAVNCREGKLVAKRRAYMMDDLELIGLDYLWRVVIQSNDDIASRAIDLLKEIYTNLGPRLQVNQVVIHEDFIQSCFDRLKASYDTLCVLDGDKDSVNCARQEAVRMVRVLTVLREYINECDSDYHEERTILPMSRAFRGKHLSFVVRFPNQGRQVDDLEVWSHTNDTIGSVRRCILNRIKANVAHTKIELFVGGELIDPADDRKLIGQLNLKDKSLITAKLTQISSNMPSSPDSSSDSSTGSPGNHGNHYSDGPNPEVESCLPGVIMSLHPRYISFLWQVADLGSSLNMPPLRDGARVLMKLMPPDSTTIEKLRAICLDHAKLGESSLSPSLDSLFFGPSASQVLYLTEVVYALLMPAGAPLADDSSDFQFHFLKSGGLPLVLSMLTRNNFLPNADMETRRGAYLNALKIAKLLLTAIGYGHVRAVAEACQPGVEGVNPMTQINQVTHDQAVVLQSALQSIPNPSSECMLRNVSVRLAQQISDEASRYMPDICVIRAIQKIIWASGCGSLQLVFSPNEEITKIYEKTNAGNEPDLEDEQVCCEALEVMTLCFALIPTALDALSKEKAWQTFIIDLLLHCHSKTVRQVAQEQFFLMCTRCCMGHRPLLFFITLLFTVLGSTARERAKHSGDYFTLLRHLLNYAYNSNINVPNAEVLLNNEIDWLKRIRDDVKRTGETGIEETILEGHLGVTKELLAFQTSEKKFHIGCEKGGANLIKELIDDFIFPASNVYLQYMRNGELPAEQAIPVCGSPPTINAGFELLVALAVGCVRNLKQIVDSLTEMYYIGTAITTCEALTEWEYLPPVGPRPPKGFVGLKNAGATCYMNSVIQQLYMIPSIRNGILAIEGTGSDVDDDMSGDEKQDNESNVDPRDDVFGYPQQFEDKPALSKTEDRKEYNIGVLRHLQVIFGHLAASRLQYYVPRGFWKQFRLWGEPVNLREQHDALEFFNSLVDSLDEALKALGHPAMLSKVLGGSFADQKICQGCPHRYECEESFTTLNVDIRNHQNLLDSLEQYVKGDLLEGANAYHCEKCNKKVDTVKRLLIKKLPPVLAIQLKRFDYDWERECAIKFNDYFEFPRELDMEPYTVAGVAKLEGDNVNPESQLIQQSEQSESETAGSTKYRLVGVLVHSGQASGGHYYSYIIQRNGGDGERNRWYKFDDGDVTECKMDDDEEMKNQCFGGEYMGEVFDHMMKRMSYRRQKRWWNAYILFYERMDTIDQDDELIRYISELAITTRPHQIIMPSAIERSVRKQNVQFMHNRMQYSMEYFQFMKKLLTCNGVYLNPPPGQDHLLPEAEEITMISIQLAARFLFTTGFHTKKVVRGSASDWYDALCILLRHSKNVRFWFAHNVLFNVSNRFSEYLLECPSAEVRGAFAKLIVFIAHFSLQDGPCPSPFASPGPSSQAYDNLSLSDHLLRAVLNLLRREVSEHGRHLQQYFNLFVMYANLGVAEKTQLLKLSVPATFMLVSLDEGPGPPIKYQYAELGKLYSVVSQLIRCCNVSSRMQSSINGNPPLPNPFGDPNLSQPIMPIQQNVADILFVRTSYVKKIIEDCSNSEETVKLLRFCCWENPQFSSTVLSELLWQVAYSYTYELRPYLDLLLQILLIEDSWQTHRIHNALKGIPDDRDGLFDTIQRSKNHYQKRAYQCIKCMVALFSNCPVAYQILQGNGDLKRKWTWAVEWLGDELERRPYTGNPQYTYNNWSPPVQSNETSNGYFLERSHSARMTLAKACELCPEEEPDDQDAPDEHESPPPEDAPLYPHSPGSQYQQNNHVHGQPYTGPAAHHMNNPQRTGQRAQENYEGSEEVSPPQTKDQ

Row | Structure (SMILES) | inhibition at 5 µM [3] | inhibition at 5 µM [1] | PARP cleavage % Inhibition [2]
1 | N#C/C(=C\c1cc(Br)ccn1)C(=O)NC1(c2ccccc2)CCCC1 [Compound 28, (E)-3-(4-bromopyridin-2-yl)-2-cyano-N-(1-phenylcyclopentyl)acrylamide] | < 25% | < 25% | D (D is <25% inhibition)
2 | Cn1cc(-c2cccc(/C=C(\C#N)C(=O)NC3(c4ccccc4)CCCC3)n2)cn1 [Compound 62, (E)-2-cyano-3-(6-(1-methyl-1H-pyrazol-4-yl)pyridin-2-yl)-N-(1-phenylcyclopentyl)acrylamide] | 50 to 75% | ≥ 75% | A (A is ≧75% inhibition)
3 | COC(=O)c1cccc(C2(NC(=O)/C(C#N)=C/c3cccc(Br)n3)CCCC2)c1 [Compound 48, (E)-methyl 3-(1-(3-(6-bromopyridin-2-yl)-2-cyanoacrylamido)cyclopentyl)benzoate] | 50 to 75% | < 25% | A (A is ≧75% inhibition)
4 | N#C/C(=C\c1cccc(C2CC2)n1)C(=O)NC1(c2ccc(-c3cccnc3)cc2)CCCC1 [Compound 67, (E)-2-cyano-3-(6-cyclopropylpyridin-2-yl)-N-(1-(4-(pyridin-3-yl)phenyl)cyclopentyl)acrylamide] | 50 to 75% | ≥ 75% | A (A is ≧75% inhibition)
5 | N#C/C(=C\c1ncc(Br)cc1Br)C(=O)NC1(c2ccccc2)CCCC1 [Compound 4, (E)-3-(3,5-Dibromopyridin-2-yl)-2-cyano-N-(1-phenylcyclopentyl)acrylamide] | ≥ 75% | ≥ 75% | A (A is ≧75% inhibition)
6 | COC(=O)c1cccc(-c2cccc(/C=C(\C#N)C(=O)NC3(c4ccccc4)CCCC3)n2)c1 [Compound 34] | 50 to 75% | 25 to 50% | A (A is ≧75% inhibition)
7 | CCOc1ncc(C(F)(F)F)cc1-c1cccc(/C=C(\C#N)C(=O)NC2(c3ccccc3)CCCC2)n1 [Compound 47, (E)-2-cyano-3-(2′-ethoxy-5′-(trifluoromethyl)-[2,3′-bipyridin]-6-yl)-N-(1-phenylcyclopentyl)acrylamide] | 25 to 50% | 50 to 75% | A (A is ≧75% inhibition)
8 | N#C/C(=C\c1ccc(Cl)c(F)c1)C(=O)NC1(c2ccccc2)CCCC1 [Compound 12, (E)-3-(4-Chloro-3-fluorophenyl)-2-cyano-N-(1-phenylcyclopentyl)acrylamide] | 25 to 50% | < 25% | C (C is 25% to 50% inhibition)
9 | N#C/C(=C\c1ncc(Br)cc1Br)C(=O)NC1(c2ccncc2)CCCC1 [Compound 3-3, (E)-2-cyano-3-(3,5-dibromopyridin-2-yl)-N-(1-(pyridin-4-yl)cyclopentyl)acrylamide] | 50 to 75% | ≥ 75% | A (A is ≧75% inhibition)
10 | N#C/C(=C\c1cccc(-c2ccc(N3CCOCC3)nc2)n1)C(=O)NC1(c2ccccc2)CCCC1 [Compound 57, (E)-2-cyano-3-(6′-morpholino-[2,3′-bipyridin]-6-yl)-N-(1-phenylcyclopentyl)acrylamide] | ≥ 75% | ≥ 75% | A (A is ≧75% inhibition)
11 | N#C/C(=C\c1cccc(C#CCn2cccn2)n1)C(=O)NC1(c2ccncc2)CCCC1 [Compound 3-4, (E)-3-(6-(3-(1H-pyrazol-1-yl)prop-1-yn-1-yl)pyridin-2-yl)-2-cyano-N-(1-(pyridin-4-yl)cyclopentyl)acrylamide] | < 25% | < 25% | B (B is 50% to 75% inhibition)
12 | N#C/C(=C\c1cccc(Br)n1)C(=O)NC1(c2cccc(Br)c2)CCCC1 [Compound 58, (E)-N-(1-(3-bromophenyl)cyclopentyl)-3-(6-bromopyridin-2-yl)-2-cyanoacrylamide] | ≥ 75% | ≥ 75% | A (A is ≧75% inhibition)
13 | N#C/C(=C\c1cccc(Br)n1)C(=O)NC1(c2ccc(CO)cc2)CCCC1 [Compound 86, (E)-3-(6-bromopyridin-2-yl)-2-cyano-N-(1-(4-(hydroxymethyl)phenyl)cyclopentyl)acrylamide] | 25 to 50% | < 25% | B (B is 50% to 75% inhibition)

Further lines, with some results ahead:

Row | inhibition at 5 µM [3] | Structure (SMILES) | inhibition at 5 µM [1] | PARP cleavage % Inhibition [2]
14 | < 25% | N#C/C(=C\c1cccc(-c2cccc(C(=O)O)c2F)n1)C(=O)NC1(c2ccccc2)CCCC1 [Compound 89, (E)-3-(6-(2-cyano-3-oxo-3-((1-phenylcyclopentyl)amino)prop-1-en-1-yl)pyridin-2-yl)-2-fluorobenzoic acid] | < 25% | C (C is 25% to 50% inhibition)
15 | < 25% | N#C/C(=C\c1cccc(C2CC2)n1)C(=O)NC1(c2ccc(-c3cccc(C(=O)O)c3)cc2)CCCC1 [Compound 82, (E)-4′-(1-(2-cyano-3-(6-cyclopropylpyridin-2-yl)acrylamido)cyclopentyl)-[1,1′-biphenyl]-3-carboxylic acid] | 50 to 75% | A (A is ≧75% inhibition)
16 | < 25% | N#C/C(=C\c1cccc(Br)n1)C(=O)NC1(c2ccc(-c3cccc(C(=O)NS(=O)(=O)c4ccccc4)c3)cc2)CCCC1 [Compound 94, (E)-4′-(1-(3-(6-bromopyridin-2-yl)-2-cyanoacrylamido)cyclopentyl)-N-(phenylsulfonyl)-[1,1′-biphenyl]-3-carboxamide] | 25 to 50% | A (A is ≧75% inhibition)
17 | 25 to 50% | CC(=O)OCc1ccc(C2(NC(=O)/C(C#N)=C/c3cccc(Br)n3)CCCC2)cc1 [Compound 87, (E)-4-(1-(3-(6-bromopyridin-2-yl)-2-cyanoacrylamido)cyclopentyl)benzyl acetate] | 50 to 75% | A (A is ≧75% inhibition)
18 | 50 to 75% | N#C/C(=C\c1cccc(Br)n1)C(=O)NC1(c2ccc(-c3ccc4[nH]ccc4c3)cc2)CCCC1 [Compound 96, (E)-N-(1-(4-(1H-indol-5-yl)phenyl)cyclopentyl)-3-(6-bromopyridin-2-yl)-2-cyanoacrylamide] | 50 to 75% | A (A is ≧75% inhibition)
19 | 25 to 50% | N#C/C(=C\c1cccc(C2CC2)n1)C(=O)NC1(c2ccc(-c3ccc4[nH]ccc4c3)cc2)CCCC1 [Compound 99, (E)-N-(1-(4-(1H-indol-5-yl)phenyl)cyclopentyl)-2-cyano-3-(6-cyclopropylpyridin-2-yl)acrylamide] | < 25% | C (C is 25% to 50% inhibition)
20 | 25 to 50% | CCOC(=O)CN1CCc2ccc(-c3cccc(/C=C(\C#N)C(=O)NC4(c5ccccc5)CCCC4)n3)cc2C1 [Compound 97, (E)-ethyl 2-(7-(6-(2-cyano-3-oxo-3-((1-phenylcyclopentyl)amino)prop-1-en-1-yl)pyridin-2-yl)-3,4-dihydroisoquinolin-2(1H)-yl)acetate] | < 25% | B (B is 50% to 75% inhibition)
21 | 50 to 75% | Cn1cc(-c2ccc(C3(NC(=O)/C(C#N)=C/c4ncc(Br)cc4Br)CCCC3)cc2)cn1 [Compound 77, (E)-2-cyano-3-(3,5-dibromopyridin-2-yl)-N-(1-(4-(1-methyl-1H-pyrazol-4-yl)phenyl)cyclopentyl)acrylamide] | 50 to 75% | B (B is 50% to 75% inhibition)
22 | < 25% | N#C/C(=C\c1ncc(Br)cc1Br)C(=O)NC1(c2ccc(-c3ccc(N4CCCCC4)nc3)cc2)CCCC1 [Compound 69, (E)-2-cyano-3-(3,5-dibromopyridin-2-yl)-N-(1-(4-(6-(piperidin-1-yl)pyridin-3-yl)phenyl)cyclopentyl)acrylamide] | < 25% | D (D is <25% inhibition)
